Assay results: US8841349B2, “Stabilize compositions based on monoalkyl glycerol ethers and aromatic alcohols” (Air Liquide Sante (International), priority 2003, dated 2014)

System: mixed suspension (Group 5) of the four test microbe groups
Assay: Koko test (pack preservation, repeated inoculation challenge) of aqueous working solutions in Ringer's solution
Format: cell-based
Settings: for Koko results: microbial growth of streaks, inoculation cycle 1: inoculation cycle 1; Ringer's solution as product; use concentration 0.5% for 1), 0.6% for 2), 2.0% for 3) and 4); for Koko results: microbial growth of streaks, inoculation cycle 2: inoculation cycle 2; Ringer's solution as product; use concentration 0.5% for 1), 0.6% for 2), 2.0% for 3) and 4); for Koko results: microbial growth of streaks, inoculation cycle 3: inoculation cycle 3; Ringer's solution as product; use concentration 0.5% for 1), 0.6% for 2), 2.0% for 3) and 4); for Koko results: microbial growth of streaks, inoculation cycle 4: inoculation cycle 4; Ringer's solution as product; use concentration 0.5% for 1), 0.6% for 2), 2.0% for 3) and 4); for Koko results: microbial growth of streaks, inoculation cycle 5: inoculation cycle 5; Ringer's solution as product; use concentration 0.5% for 1), 0.6% for 2), 2.0% for 3) and 4); for Koko results: microbial growth of streaks, inoculation cycle 6: inoculation cycle 6; Ringer's solution as product; use concentration 0.5% for 1), 0.6% for 2), 2.0% for 3) and 4)
Description: Unless expressly stated otherwise, all of the percentages are percentages by weight. Aqueous working solutions were investigated using Ringer's solution as product in the Koko test.
Using the described method, the effectiveness of chemical preservatives (stabilizer compositions) is tested with regard to the pack preservation for cosmetic formulations. For this purpose, the compositions to be investigated are added in varying concentrations to the unstabilized samples in various experimental batches. A continuous microbial burden is achieved by periodically inoculating the experimental batches. In parallel to the inoculation, streaks of each of the individual batches are in each case made immediately beforehand. Assessment is made by reference to the microbial growth of the streaks.
• CSA (casein peptone soya flour peptone agar) • SA (Sabouraud dextrose agar) • SA slant tube • CSA+TLSH (No. 4) • SA-TLSH (No. 10) • NaCl (physiological sodium chloride solution, […]) • TLSH (disinhibiting medium for bacteria=Tween 80+lecithin+saponin+histidine)
The test microbe used was the mixed suspension (Group 5) of the following four test microbe groups.
Cultivation of the Test Microbes • Bacteria: streaking using a sterile glass rod on CS agar • Yeasts: streaking using a sterile glass rod on SA agar • Fungi: Aspergillus niger is transferred to 4 SA slant tubes • Penicillium funiculosum is transferred to SA agar plates
All of the test microbes are incubated for one week at 25° C.±2° C. The test microbes are replaced at intervals of 3 to 4 months.
The bacteria are rinsed off with 5 ml of NaCl solution in each case, filtered through a glass funnel containing glass wool into a 100 ml measuring cylinder and made up to 100 ml with NaCl. The bacterial suspensions have a titre of about 10^9 CFU/ml.
Three Aspergillus niger slant tubes are each shaken with 3 ml of NaCl solution on a Heldolph stirrer and introduced through a glass funnel containing glass wool. The yeast Candida albicans is rinsed off with 5 ml of NaCl and likewise poured through the glass funnel. 5 ml of a Penicillium funiculosum suspension are added to this mixture and made up to 100 ml with NaCl. The fungal suspension has a titre of about 10^5-9 CFU/ml.
The inoculation solution actually used is prepared as described above (Groups 1 to 4). After rinsing off, these are mixed and then made up to 100 ml with NaCl.
The microbial suspension was transferred to sterile glass-stoppered bottles containing glass beads and shaken for 5 min at a shaking frequency (to-and-fro movement) of 200 units/min. The microbial content of the mixed suspension is 10^9 CFU/ml. The suspension should be used on the day of preparation, but can also be used after 24 hours upon storage in a refrigerator.
In separate batches, 25 g of the cosmetic to be tested are mixed in each case with the compositions to be investigated in varying concentrations. The growth control used in each case is an unstabilized product sample. The test batches are streaked onto CSA/TLSH and SA/TLSH once per week following thorough stirring using a sterile glass rod, the first streaking being carried out directly prior to reinoculation. All of the samples are inoculated with 0.1 ml of the respective microbial suspension and thoroughly stirred.
The microbial growth of the streaks is assessed after incubation for three days at 25° C.±2° C. To be on the safe side, negative streaks are observed for a further two days and reassessed. The stabilizing action of the individual product concentration is assessed in a semiqualitative method by means of the growth of the individual streaks.
The test is usually carried out over six inoculation cycles and terminated after massive growth on two occasions.
A composition is considered good if it exists under the laboratory conditions given above for a period of six weeks without microbial attack of the sample batches, i.e. even after the sixth inoculation, no microbial growth can be detected.

Structure (SMILES) | Koko results: microbial growth of streaks, inoculation cycle 1 | Koko results: microbial growth of streaks, inoculation cycle 2 | Koko results: microbial growth of streaks, inoculation cycle 3 | Koko results: microbial growth of streaks, inoculation cycle 4 | Koko results: microbial growth of streaks, inoculation cycle 5 | Koko results: microbial growth of streaks, inoculation cycle 6
O=C([O-])CNCO.[Na+] [1), sodium hydroxymethyl-glycinate] | +Y | +Y | +Y | +Y | +Y | +Y
CC1(C)C(=O)N(CO)C(=O)N1CO [2), dimethyldimethylolhydantoin] | +B | ++B | ++B | ++B | ++B | ++B
